Test results taken from ChEMBL document CHEMBL1240418, “Carbonic anhydrase inhibitors. Regioselective synthesis of novel 1-substituted 1,4-dihydro-4-oxo-3-pyridinesulfonamides and their inhibition of the human cytosolic isozymes I and II and transmembrane cancer-associated isozymes IX and XII” (Eur J Med Chem, 2010).

Biological target: Carbonic anhydrase 9 (Homo sapiens, UniProt Q16790)

SMILES | Ki
NS(=O)(=O)c1cn(-c2ccc([N+](=O)[O-])cc2[N+](=O)[O-])ccc1=O | 5.8 nM
NS(=O)(=O)c1cn(CC(=O)c2ccc(Cl)c(Cl)c2)ccc1=O | 8.6 nM
NS(=O)(=O)c1cn(CC(=O)c2ccc(F)cc2)ccc1=O | 9.7 nM
NC(=O)Cn1ccc(=O)c(S(N)(=O)=O)c1 | 64 nM
NS(=O)(=O)c1cn(CC(=O)c2ccc3ccccc3c2)ccc1=O | 118 nM
NS(=O)(=O)c1cn(Cc2ccccc2)ccc1=O | 7.8 nM
NS(=O)(=O)c1cn(CC(=O)c2cccc([N+](=O)[O-])c2)ccc1=O | 11.9 nM
NS(=O)(=O)c1cn(-c2ccc([N+](=O)[O-])c3[n-][o+]nc23)ccc1=O | 6.9 nM
Cn1ccc(=O)c(S(N)(=O)=O)c1 | 7.1 nM
NS(=O)(=O)c1cn(CC(=O)c2ccc(Cl)cc2)ccc1=O | 11.8 nM
COC(=O)Nc1ccccc1C(=O)n1ccc(=O)c(S(N)(=O)=O)c1 | 96 nM
